Patent US20250034127A1, “AUTOPHAGY INDUCING COMPOUNDS AND USES THEREOF, IN PARTICULAR FOR DISEASES OF THE CNS” (Samsara Therapeutics Inc., priority 2021, published 2025)

Tested on: U2OS cell line stabling expressing RFP-eGFP-hLC3b
Test: Tandem reporter assay (autophagic flux)
Format: cell-based, human
Conditions: RFP-only puncta as percentage of DMSO-treated control, 24 hours
Method: Selected compounds of this invention were also assessed for their ability to stimulate autophagy using a U2OS cell line stabling expressing RFP-cGFP-hLC3b (a tandem reporter cell line).
During the process of autophagy, the cargo to be degraded is first enveloped by organelles called autophagosomes. These autophagosomes then fuse with lysosomes, causing them to become acidified and their digestive enzymes to become activated. The term “autophagic flux” is used to represent the dynamic process of autophagy: autophagic flux refers to the whole process of autophagy, including autophagosome formation, maturation, fusion with lysosomes, subsequent breakdown and the release of macromolecules back into the cytosol (Zhang X J, Chen S, Huang K X, Le W D. Why should autophagic flux be assessed? Acta Pharmacol Sin. 2013 May; 34 (5): 595-9. doi: 10.1038/aps.2012.184. Epub 2013 Mar. 11). Compounds that stimulate autophagic flux stimulate the dynamic process of autophagy (the whole process of autophagy).
LC3b is a protein found in the membrane of autophagosomes which has been used to generate genetic reporters of autophagy in cells. In these systems a tandem fusion of LC3b is engineered with two fluorescent proteins of different wavelengths: one which is acid sensitive (for example eGFP, which fluoresces green) and the other which is acid insensitive (for example RFP, which fluoresces red). Cells expressing RFP-cGFP-hLC3b can be examined using fluorescent microscopy: the autophagosomes present will fluoresce in both channels (either yellow in an overlay of both channels or puncta that are present in both the individual red and green channels) but the autolysosomes present will fluoresce in the RFP (red) channel only. Using a fluorescent microscope, the number of autophagosomes and autolysosomes can be counted, allowing for the monitoring of both the induction of autophagy (total puncta count) and the rate of autophagic flux (ratio of red-only to red-and-green puncta). The influence of small molecules on autophagy induction and flux can be assessed using this system by comparison to a non-treated control.
Representative Procedure: Human osteosarcoma U2OS cells stably expressing RFP-eGFP-hLC3b were seeded (10,000 cells/well) into a 96-well glass-bottom plate (Cell Carrier Ultra, Perkin Elmer) in DMEM Glutamax media (Gibco) supplemented with 10% Fetal Bovine Serum (FBS) and antibiotics (100 u/ml penicillin, 100 μg/ml streptomycin, Invitrogen), then incubated overnight in a humified atmosphere at 37° C. and 5% CO2. The cells were then treated with the compounds of interest, dissolved in DMSO, in a duplicated 5- or 10-point dose-response. 8 wells were treated with an equivalent volume of DMSO, 4 with […] torin-1 as a positive control (MCE) and 4 wells with 0.4 μM torin-1 plus 0.2 μM bafilomycin (MCE) as a control for flux inhibition. The cells were returned to the incubator and the treatment continued for 24 hours. After treatment, the media was aspirated off and the cells fixed with a solution of 4% formaldehyde+1% glutaraldehyde (Sigma) in dPBS (plus magnesium and calcium, Gibco). Fixation was allowed to proceed for 15 minutes at room temperature then the fixative solution discarded and replaced with PBS (Gibco) plus Hoescht 33342 (1 μg/ml, Sigma). After 30 minutes the plates were imaged on an Opera Phenix confocal microscope (Perkin-Elmer) using a 40× water objective, collecting using DAPI, mCherry and GFP channels. Cells were detected based upon the staining of their nuclei with DAPI using the Harmony image analysis software (Perkin-Elmer) and the number of autophagosomes (GFP and RFP puncta) and autolysosomes (RFP only puncta) per cell were counted using the spot picking function within the software.

Structure (SMILES)	Autolysosome % DMSO activity (compound concentration of 1 μM) [%]	Autolysosome % DMSO activity (compound concentration of 10 μM) [%]
C[C@H]1CN(C(=O)c2csc(-c3cnn(-c4ccc(C5CC5)cc4)c3)n2)CCN1 [Compound 266, (3S)-1-{2-[1-(4-cyclopropylphenyl)-1H-pyrazol-4-yl]-1,3-thiazole-4-carbonyl}-3-methylpiperazine]	176	273
CC1CC(N(C(=O)c2csc(-c3cnn(-c4ccccc4)c3)n2)C(C)C)CC(C)N1 (stereo not drawn) [Compound 298, N-(2,6-dimethylpiperidin-4-yl)-2-(1-phenyl-1H-pyrazol-4-yl)-N-(propan-2-yl)-1,3-thiazole-4-carboxamide]	187	151
C[C@H]1CN(C(=O)c2csc(-c3cnn(-c4ccc(C(C)(C)C)cc4)c3)n2)CCN1 [Compound 270, (3S)-1-{2-[1-(4-tert-butylphenyl)-1H-pyrazol-4-yl]-1,3-thiazole-4-carbonyl}-3-methylpiperazine]	251	–
CC(C)N(C(=O)c1csc(-c2cnn(-c3ccccc3)c2)n1)[C@@H]1CN[C@H](C)C1 [Compound 299, N-[(3S,5R)-5-methylpyrrolidin-3-yl]-2-(1-phenyl-1H-pyrazol-4-yl)-N-(propan-2-yl)-1,3-thiazole-4-carboxamide]	162	152
C[C@H]1CN(C(=O)c2nc(-c3cnn(-c4ccccc4)c3)c[nH]2)CCN1 [Compound 279, (3S)-3-methyl-1-[5-(1-phenyl-1H-pyrazol-4-yl)-1H-imidazole-2-carbonyl]piperazine]	123	158
CC(C)c1ccc(-n2cc(-c3nc(C(=O)N4CCN[C@@H](C)C4)cs3)cn2)cc1 [Compound 273, (3S)-3-methyl-1-(2-{1-[4-(propan-2-yl)phenyl]-1H-pyrazol-4-yl}-1,3-thiazole-4-carbonyl)piperazine]	224	–
CC1CC(N(C(=O)c2csc(-c3cnn(-c4ccccc4)c3)n2)C(C)C)CCN1 (stereo not drawn) [Compound 297, N-(2-methylpiperidin-4-yl)-2-(1-phenyl-1H-pyrazol-4-yl)-N-(propan-2-yl)-1,3-thiazole-4-carboxamide]	109	119
